Measured values published in patent US5665745A, “Heterocyclic compounds and their preparation and use” (Eli Lilly and Company, priority 1995, dated 1997).
Where two headings read alike, the source gives them in different places.

What was measured:
[1] = biological target: T1, muscarinic receptors (M1 -site, pirenzepine sensitive site) (Rattus norvegicus, UniProt P08482); assay: inhibition of ^3 HPRZ (pirenzepine, [N-methyl-^3 H]) binding to rat cerebral cortex membranes; parameters: species or system rat (male Wistar
T1 construct: from tissue; host or cells: cerebral cortex membranes of male Wistar rats
T1 sequence (P08482 1-460): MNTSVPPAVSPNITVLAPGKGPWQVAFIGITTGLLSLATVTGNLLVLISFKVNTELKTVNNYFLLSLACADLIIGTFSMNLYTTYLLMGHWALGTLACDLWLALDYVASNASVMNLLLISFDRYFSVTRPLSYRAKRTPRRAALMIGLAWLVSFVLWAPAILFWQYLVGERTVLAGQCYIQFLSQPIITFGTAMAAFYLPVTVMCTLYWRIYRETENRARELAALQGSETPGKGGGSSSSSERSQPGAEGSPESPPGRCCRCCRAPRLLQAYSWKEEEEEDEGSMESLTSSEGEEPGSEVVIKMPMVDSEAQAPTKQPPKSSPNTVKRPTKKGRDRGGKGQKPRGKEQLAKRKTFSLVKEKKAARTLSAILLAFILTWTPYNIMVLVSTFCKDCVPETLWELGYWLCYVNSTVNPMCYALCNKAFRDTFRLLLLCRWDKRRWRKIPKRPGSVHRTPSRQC
Summary of the method: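 Male Wistar rat cortex membranes in 20 mM Hepes pH 7.4 were incubated with 1.0 nM (final) [3H]pirenzepine for 60 min at 20° C; nonspecific binding was defined with 1 μg/mL atropine. Filtration and scintillation counting were used, and IC50 was calculated from a single concentration assuming mass-action kinetics.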

[2] = biological target: muscarinic acetylcholine receptors; assay: inhibition of specific binding of ^3 H-Oxotremorine-M (^3 H-Oxo); parameters: species or system rat (male Wistar; details: ^3 H-Oxotremorine 1.0 nM, rat cortex, 30 min. at 25° C.
Summary of the method: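 Rat cortex membranes (male Wistar) in 20 mM Hepes pH 7.4 incubated with 1.0 nM ^3H-Oxotremorine-M (final) and test compound for 30 min at 25 °C; arecoline defines non-specific binding. Bound radioactivity by filtration and scintillation counting; IC50 (nM) from a single concentration via Co/Cx mass-action formula, reflecting high- and medium-affinity sites.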

[3] = biological target: muscarinic receptor in the CNS; details: cited from earlier work
M2 -sites = details: background statement; cited from earlier work
M1 -sites = details: background statement; cited from earlier work
[4] = ^3 HPRZ 1.0 nM, rat cortex, 60 min. at 20° C., read-out: ^3 HPRZ IC50 (head from b208 on: Pir IC-50)

SMILES	IC50 [1, 4] [nM]	IC50 [2] [nM]	further results
C1CCC(CCCCOc2nsnc2O[C@@H]2CN3CCC[C@H]2C3)CC1 (relative stereo) [Compound 202, (±)-endo-3-(4-Cyclohexylbutoxy)-4-(1-azabicyclo[3.2.1]octyl-6-oxy)-1,2,5-thiadiazole]	31	13	–
CC(C)(CCOc1nsnc1O[C@@H]1CN2CCC[C@H]1C2)c1ccccc1 (relative stereo) [Compound 204, (±)-endo-3-(3-Methyl-3-phenylbutoxy)-4-(1-azabicyclo[3.2.1]octyl-6-oxy)-1,2,5-thiadiazole]	153	59	–
FCCCOc1nsnc1O[C@@H]1CN2CCC[C@H]1C2 (relative stereo) [Compound 205, (±)-endo-3-(3-Fluoropropoxy)-4-(1-azabicyclo[3.2.1]octyl-6-oxy)-1,2,5-thiadiazole]	3	2.5	–
c1csc(CCCOc2nsnc2O[C@@H]2CN3CCC[C@H]2C3)c1 (relative stereo) [Compound 206, (±)-endo-3-[3-(2-Thienyl)propoxy]-4-(1-azabicyclo[3.2.1]octyl-6-oxy)-1,2,5-thiadiazole]	5	6.1	–
CCCCCSc1nsnc1O[C@@H]1CN2CCC1CC2 [Compound 16, (S)-3-Pentylthio-4-(1-azabicyclo[2.2.2]octyl-3-oxy)-1,2,5-thiadiazole]	–	6.4	IC50 [1]: 2 nM
CCCCSc1nsnc1OC1CCN(C)CC1 [Compound 30, 3-Butylthio-4-(1-methyl-4-piperidyloxy)-1,2,5-thiadiazole]	19	69	–
CCCCOc1nsnc1OC[C@@H]1CCCN1C [Compound 31, (S)-3-Butyloxy-4-(1-methyl-2-pyrrolidinylmethyloxy)-1,2,5-thiadiazole]	12	32	–
CCCCOc1nsnc1OC[C@@H]1CCCN1 [Compound 32, (S)-3-Butyloxy-4-(2-pyrrolidinylmethyloxy)-1,2,5-thiadiazole]	45	77	–
CCCCOc1nsnc1OCCN(C)C [Compound 33, 3-Butyloxy-4-(2-(dimethylamino)ethoxy)-1,2,5-thiadiazole]	48	51	–
CCCCSc1nsnc1OCCN(CC)CC [Compound 34, 3-Butylthio-4-(2-(diethylamino)ethoxy)-1,2,5-thiadiazole]	10	86	–
CCCCOc1nsnc1OCC[N+](C)(C)C [Compound 35, 3-Butyloxy-4-(2-(trimethylamino)ethoxy)-1,2,5-thiadiazole iodide]	33	23	–
CCCCOc1nsnc1SCCN(C)C [Compound 36, 3-Butyloxy-4-(2-(dimethylamino)ethylthio)-1,2,5-thiadiazole]	217	204	–
CCCCCSc1nsnc1O[C@H]1CN2CCC1CC2 [Compound 38, (R)-3-Pentylthio-4-(1-azabicyclo[2.2.2]octyl-3-oxy)-1,2,5-thiadiazole]	–	1	IC50 [1]: 1.9 nM
CCCCOc1nsnc1OC1CC2CCC(C1)N2C (centres unmarked) [Compound 45]	–	29	IC50 [1]: 4.6 nM
CCCCOc1nsnc1OC1CNC1 [Compound 50, 3-Butyloxy-4-(3-azetidinyloxy)-1,2,5-thiadiazole]	351	92	–
CCCCSc1nsnc1OC1CNC1 [Compound 51, 3-Butylthio-4-(3-azetidinyloxy)-1,2,5-thiadiazole]	112	25	–
CCCCOc1nsnc1O[C@@H]1CCC[C@@H]1N [Compound 135, 3-Butyloxy-4-(cis-1R-2-aminocyclopentanoxy)-1,2,5-thiadiazole]	> 1000	> 1000	–
CCCCSc1nsnc1O[C@@H]1CN2CCC[C@H]1C2 [Compound 137, (5S, 6S)-endo-3-Butylthio-4-(1-azabicyclo[3.2.1]octyl-6-oxy)-1,2,5-thiadiazole]	2.1	7.39	–
CCCCSc1nsnc1O[C@H]1CN2CCC[C@@H]1C2 [Compound 138, (5R,6R)-endo-3-Butylthio-4-(1-azabicyclo[3.2.1]octyl-6-oxy)-1,2,5-thiadiazole]	0.47	0.65	–
O=C1CCCn2cccc21 [Compound 139, 1-azabicyclo[4.3.0]nona-6,8-diene-5-one]	145	230	–
CCCCSc1nsnc1OCCN(C)C [Compound 144, 3-Butylthio-4-(2-dimethylaminoethoxy)-1,2,5-thiadiazole]	9	12	–
C[N+](C)(C)CC#CCN1CCCC1=O [^3 H-Oxo]	–	–	Kd ([3]; first of three sites labeled (high affinity)): 1.8 nM; Kd ([3]; second of three sites labeled (medium affinity)): 20 nM; Kd ([3]; third of three sites labeled, read-out: affinity): 3000 nM
CN1CCN(CC(=O)N2c3ccccc3C(=O)Nc3cccnc32)CC1 [pirenzepine]	–	–	interaction with M2 -sites (M2 -sites): also interact with M2 -sites; selectivity for muscarinic receptor subtype (M1 -sites): selective for M1 -sites
